Assay results from article PMC3480797 (Indian Journal of Pharmacology, 2012).
pIC50: −log10 of the molar value.

What was measured:
[1] = type: in vivo, rats; details: rat, oral nimodipine 12 mg/kg
[2] = type: in vivo, rats; details: rat, i.v. nimodipine 3 mg/kg, with pravastatin 0.3 and 1 mg/kg
[3] = molecular target: P-gp (Homo sapiens, UniProt P08183); experiment: Rhodamine-123 retention assay in P-gp overexpressing MCF-7/ADR cells; type: cell-based; details: 10 to 100 μM, 90 min, 20 μM rhodamine-123, MCF-7/ADR cells
[4] = molecular target: human CYP3A4 (Homo sapiens, UniProt P08684); experiment: biochemical
Chain of human CYP3A4 (P08684 whole entry): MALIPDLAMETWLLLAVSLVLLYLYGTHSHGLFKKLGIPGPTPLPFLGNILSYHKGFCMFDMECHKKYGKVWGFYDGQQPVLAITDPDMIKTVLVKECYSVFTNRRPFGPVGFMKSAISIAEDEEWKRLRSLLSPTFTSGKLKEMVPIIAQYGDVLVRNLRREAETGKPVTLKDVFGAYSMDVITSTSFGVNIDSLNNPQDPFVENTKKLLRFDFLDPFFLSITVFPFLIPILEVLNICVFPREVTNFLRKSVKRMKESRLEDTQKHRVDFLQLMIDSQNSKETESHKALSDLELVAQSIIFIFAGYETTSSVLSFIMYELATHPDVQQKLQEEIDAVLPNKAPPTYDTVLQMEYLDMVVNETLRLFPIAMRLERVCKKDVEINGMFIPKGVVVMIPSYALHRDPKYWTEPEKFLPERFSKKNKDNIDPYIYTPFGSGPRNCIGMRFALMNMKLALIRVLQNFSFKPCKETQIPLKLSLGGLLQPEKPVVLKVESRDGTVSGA

Chain of P-gp (P08183 whole entry): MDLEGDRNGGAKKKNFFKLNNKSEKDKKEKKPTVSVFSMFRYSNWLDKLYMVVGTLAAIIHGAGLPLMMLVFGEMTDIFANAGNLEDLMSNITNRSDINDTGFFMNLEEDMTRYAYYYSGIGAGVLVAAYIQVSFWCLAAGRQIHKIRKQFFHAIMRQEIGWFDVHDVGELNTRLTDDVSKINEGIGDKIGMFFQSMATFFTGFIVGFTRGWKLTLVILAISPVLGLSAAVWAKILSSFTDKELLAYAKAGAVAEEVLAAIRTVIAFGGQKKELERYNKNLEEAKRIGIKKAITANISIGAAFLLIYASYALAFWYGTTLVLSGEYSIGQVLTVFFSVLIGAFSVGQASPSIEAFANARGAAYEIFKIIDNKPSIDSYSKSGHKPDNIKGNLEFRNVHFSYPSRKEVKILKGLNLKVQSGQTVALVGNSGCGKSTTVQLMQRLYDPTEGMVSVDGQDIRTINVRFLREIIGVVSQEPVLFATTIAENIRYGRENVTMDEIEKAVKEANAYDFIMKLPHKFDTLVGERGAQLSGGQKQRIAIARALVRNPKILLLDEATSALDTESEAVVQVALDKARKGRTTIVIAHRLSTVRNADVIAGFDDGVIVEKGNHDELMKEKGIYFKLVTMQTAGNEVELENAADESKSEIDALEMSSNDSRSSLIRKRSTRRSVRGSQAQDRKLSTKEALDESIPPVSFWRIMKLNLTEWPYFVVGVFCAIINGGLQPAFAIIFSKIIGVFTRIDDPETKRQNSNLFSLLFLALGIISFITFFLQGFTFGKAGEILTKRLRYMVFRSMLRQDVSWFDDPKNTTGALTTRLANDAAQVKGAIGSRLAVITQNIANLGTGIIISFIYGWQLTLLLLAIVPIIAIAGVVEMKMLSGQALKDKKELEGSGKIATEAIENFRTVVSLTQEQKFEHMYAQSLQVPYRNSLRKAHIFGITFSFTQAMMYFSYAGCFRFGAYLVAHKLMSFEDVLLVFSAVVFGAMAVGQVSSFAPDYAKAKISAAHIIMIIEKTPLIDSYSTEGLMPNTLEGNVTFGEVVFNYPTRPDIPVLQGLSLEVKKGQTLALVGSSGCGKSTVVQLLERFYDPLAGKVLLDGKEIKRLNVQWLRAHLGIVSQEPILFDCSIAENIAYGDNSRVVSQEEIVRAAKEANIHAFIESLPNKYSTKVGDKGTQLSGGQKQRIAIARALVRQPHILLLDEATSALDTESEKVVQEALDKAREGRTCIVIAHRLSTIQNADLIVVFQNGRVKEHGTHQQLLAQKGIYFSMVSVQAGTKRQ

With `COCCOC(=O)C1=C(C)NC(C)=C(C(=O)OC(C)C)C1c1cccc([N+](=O)[O-])c1` (centres unmarked) [nimodipine, Nimodipine] the “increase of AUC0-∞ compared with the control group” value ([1]; with 1 mg/kg pravastatin, P < 0.05) was 30.9%, the “increase of AB compared with the oral control group” value ([1]; with pravastatin (1 mg/kg)) was 31.1% and the “effect of concurrent pravastatin on the pharmacokinetics of i.v. nimodipine” value [2] was “not affected”.
With `CC[C@H](C)C(=O)O[C@H]1C[C@H](O)C=C2C=C[C@H](C)[C@H](CC[C@@H](O)C[C@@H](O)CC(=O)O)[C@H]21` [pravastatin, Pravastatin] the “effect on P-gp activity (cellular uptake of rhodamine-123)” value [3] was “did not significantly inhibit P-gp activity” and the pIC50 [4] was 4.85.
